Measured values as given in ChEMBL document CHEMBL1150049, “Isolation and characterization of an antiviral flavonoid from Waldsteinia fragarioides” (J Nat Prod, 1992).
The source made the active and inactive calls. The calls are words filed in the database; no cut-off is given here.

Legend:
Human alphaherpesvirus 1 = assay: Antiviral activity against HSV1 infected in african green monkey Vero cells assessed as suppression of plaque formation at 40 ug/ml by plaque-reduction assay; assay type: functional, organism-based
Vero = assay: Cytotoxicity against african green monkey Vero cells at 250 ug/ml; assay type: cell-based; details: chlorocebus sabaeus

O=c1c(O[C@@H]2O[C@H](CO)[C@@H](O)[C@H](O)[C@H]2O)c(-c2ccc(O)c(O)c2)oc2cc(O)cc(O)c12 [ISOQUERCETIN]
Activity (Human alphaherpesvirus 1): Active | Activity (Vero): Toxic
